Experimental data: patent US20210214758A1, “METHODS AND TOOLS FOR DETERMINING CLONAL RELATEDNESS AND PREDICTING CLONAL TRAITS” (priority 2018, published 2021)

Legend:
[1] = tested on: Klebsiella isolates; assay: Antibiotic susceptibility of Klebsiella clinical isolates per 7-SNP clonotype (Lookup Table 1; disk diffusion); assay type: cell-based, Klebsiella spp.
Experimental: In further embodiments, the Lookup Table is Lookup Table 1. The information contained in Lookup Table 1 below was obtained from urine specimens from patients with Klebsiella infections from several clinics within different regions of the United States. CT=clonotypes determined using a 7-SNP combination: phoE54; rpoB130; infB279; mdh315; phoE336; phoE354; and mdh429.
Next, antibiotic resistance was determined for all 387 Klebsiella isolates in the discovery set. Antibiotic testing was carried out according to the standard disk diffusion method as described in the Clinical and Laboratory Standards Institute (M100 Performance Standards for Antimicrobial Susceptibility Testing, 27th Edition, 2017). […] Since almost all Klebsiella isolates are known to be resistant to AMP and sensitive to IMI, TET is not used for treatment of urinary tract infections, and ESBL production is partially reflected in resistance to CTR, these antibiotics were not included for further analysis.
To aid in clinical decision-making and to translate clonotype information to treatment selection, Lookup Table 1 was generated. […] The information contained in Lookup Table 1 was obtained from urine specimens from patients with Klebsiella infections from several clinics within different regions of the United States. Indications of allowance or non-recommendation were determined based on a 20% resistance threshold to the indicated antibiotic; i.e., the antibiotic is recommended when more than 80% of the tested isolates within the indicated clonotype were susceptible to the indicated antibiotic, and was cautioned against when less than 80% of the isolates were susceptible to the antibiotic.

[2] = tested on: Klebsiella isolates; conditions: known; cited from earlier work

Question: With `CC1(C)S[C@@H]2[C@H](NC(=O)[C@H](N)c3ccccc3)C(=O)N2[C@H]1C(=O)O` [AMP, ampicillin] as the compound, how does the “susceptibility, %” value ([1]; CT 000) read?
Answer: The value was 34%.

Question: What about the “susceptibility, %” value ([1]; CT 001) of the same compound?
Answer: Its value is 0%.

Question: And the “susceptibility, %” value ([1]; CT 010)?
Answer: The value was 0%.

Question: And the “susceptibility, %” value ([1]; CT 011)?
Answer: Its value is 0%.

Question: And the “susceptibility, %” value ([1]; CT 031)?
Answer: Its value is 0%.

Question: And the “susceptibility, %” value ([1]; CT 040)?
Answer: The value was 25%.

Question: What about the “susceptibility, %” value ([1]; CT 050) of the same compound?
Answer: Its value is 0%.

Question: And the “susceptibility, %” value ([1]; CT 051)?
Answer: The value was 0%.

Question: What about the “susceptibility, %” value ([1]; CT 071) of the same compound?
Answer: Its value is 0%.

Question: And the “susceptibility, %” value ([1]; CT 100)?
Answer: Its value is 0%.

Question: What about the “susceptibility, %” value ([1]; CT 110) of the same compound?
Answer: Its value is 0%.

Question: And the “susceptibility, %” value ([1]; CT 111)?
Answer: The value was 0%.

Question: What about the “susceptibility, %” value ([1]; CT 130) of the same compound?
Answer: The value was 2%.

Question: What about the “susceptibility, %” value ([1]; CT 131) of the same compound?
Answer: Its value is 0%.

Question: What about the “susceptibility, %” value ([1]; CT 141) of the same compound?
Answer: Its value is 0%.

Question: And the “susceptibility, %” value ([1]; CT 150)?
Answer: The value was 0%.

Question: What about the “susceptibility, %” value ([1]; CT 151) of the same compound?
Answer: The value was 2%.

Question: And the “susceptibility, %” value ([1]; CT 160)?
Answer: Its value is 0%.

Question: And the “susceptibility, %” value ([1]; CT 170)?
Answer: The value was 4%.

Question: And the “susceptibility, %” value ([1]; CT 171)?
Answer: Its value is 0%.

Question: What about the “susceptibility, %” value ([1]; CT 200) of the same compound?
Answer: The value was 9%.

Question: And the “susceptibility, %” value ([1]; CT 201)?
Answer: Its value is 6%.

Question: And the “susceptibility, %” value ([1]; CT 210)?
Answer: Its value is 0%.

Question: What about the “susceptibility, %” value ([1]; CT 211) of the same compound?
Answer: The value was 2%.

Question: And the “susceptibility, %” value ([1]; CT 230)?
Answer: Its value is 0%.

Question: What about the “susceptibility, %” value ([1]; CT 231) of the same compound?
Answer: Its value is 0%.

Question: What about the “susceptibility, %” value ([1]; CT 240) of the same compound?
Answer: The value was 0%.

Question: And the “susceptibility, %” value ([1]; CT 241)?
Answer: The value was 0%.

Question: And the “susceptibility, %” value ([1]; CT 250)?
Answer: The value was 0%.

Question: And the “susceptibility, %” value ([1]; CT 251)?
Answer: Its value is 0%.

Question: And the “susceptibility, %” value ([1]; CT 271)?
Answer: The value was 0%.

Question: What about the “susceptibility, %” value ([1]; CT 300) of the same compound?
Answer: The value was 0%.

Question: What about the “susceptibility, %” value ([1]; CT 301) of the same compound?
Answer: Its value is 0%.

Question: And the “susceptibility, %” value ([1]; CT 310)?
Answer: Its value is 0%.

Question: What about the “susceptibility, %” value ([1]; CT 311) of the same compound?
Answer: The value was 0%.

Question: And the “susceptibility, %” value ([1]; CT 330)?
Answer: Its value is 0%.

Question: And the “susceptibility, %” value ([1]; CT 331)?
Answer: The value was 1%.

Question: And the “susceptibility, %” value ([1]; CT 350)?
Answer: The value was 0%.

Question: What about the “susceptibility, %” value ([1]; CT 351) of the same compound?
Answer: Its value is 0%.

Question: What about the “susceptibility, %” value ([1]; CT 370) of the same compound?
Answer: Its value is 0%.

Question: What about the “susceptibility, %” value ([1]; CT 371) of the same compound?
Answer: Its value is 0%.

Question: And the “susceptibility, %” value ([1]; CT 411)?
Answer: Its value is 0%.

Question: And the “susceptibility, %” value ([1]; CT 450)?
Answer: Its value is 0%.

Question: And the “susceptibility, %” value ([1]; CT 451)?
Answer: The value was 0%.

Question: And the “susceptibility, %” value ([1]; CT 510)?
Answer: Its value is 0%.

Question: And the “susceptibility, %” value ([1]; CT 511)?
Answer: The value was 0%.

Question: And the “susceptibility, %” value ([1]; CT 530)?
Answer: The value was 0%.

Question: What about the “susceptibility, %” value ([1]; CT 531) of the same compound?
Answer: The value was 0%.

Question: And the “susceptibility, %” value ([1]; CT 550)?
Answer: The value was 0%.

Question: What about the “susceptibility, %” value ([1]; CT 551) of the same compound?
Answer: Its value is 0%.

Question: What about the “susceptibility, %” value ([1]; CT 570) of the same compound?
Answer: The value was 0%.

Question: What about the “susceptibility, %” value ([1]; CT 571) of the same compound?
Answer: Its value is 0%.

Question: And the “susceptibility, %” value ([1]; CT 611)?
Answer: The value was 0%.

Question: What about the “susceptibility, %” value ([1]; CT 630) of the same compound?
Answer: The value was 0%.

Question: And the “susceptibility, %” value ([1]; CT 650)?
Answer: Its value is 0%.

Question: What about the “susceptibility, %” value ([1]; CT 651) of the same compound?
Answer: Its value is 4%.

Question: What about the “susceptibility, %” value ([1]; CT 670) of the same compound?
Answer: The value was 0%.

Question: And the “susceptibility, %” value ([1]; CT 710)?
Answer: The value was 0%.

Question: What about the “susceptibility, %” value ([1]; CT 730) of the same compound?
Answer: The value was 0%.

Question: And the “susceptibility, %” value ([1]; CT 731)?
Answer: Its value is 0%.

Question: What about the “susceptibility, %” value ([1]; CT 750) of the same compound?
Answer: Its value is 0%.

Question: And the “susceptibility, %” value ([1]; CT 751)?
Answer: The value was 17%.

Question: What about the “susceptibility, %” value ([1]; CT 771) of the same compound?
Answer: The value was 0%.

Question: What about the “susceptibility, %” value ([1]; CT Any Klebsiella spp.) of the same compound?
Answer: The value was 6%.

Question: And the “resistance or sensitivity of almost all Klebsiella isolates” value [2]?
Answer: The value was “resistant”.

Question: What does the source list for trimethoprim/sulfamethoxazole [TS]?
Answer: susceptibility, % ([1]; CT 000): 87%; susceptibility, % ([1]; CT 001): 100%; susceptibility, % ([1]; CT 010): 100%; susceptibility, % ([1]; CT 011): 91%; susceptibility, % ([1]; CT 031): 67%; susceptibility, % ([1]; CT 040): 25%; susceptibility, % ([1]; CT 050): 86%; susceptibility, % ([1]; CT 051): 85%; susceptibility, % ([1]; CT 071): 60%; susceptibility, % ([1]; CT 100): 100%; susceptibility, % ([1]; CT 110): 100%; susceptibility, % ([1]; CT 111): 90%; susceptibility, % ([1]; CT 130): 92%; susceptibility, % ([1]; CT 131): 72%; susceptibility, % ([1]; CT 141): 100%; susceptibility, % ([1]; CT 150): 73%; susceptibility, % ([1]; CT 151): 65%; susceptibility, % ([1]; CT 160): 0%; susceptibility, % ([1]; CT 170): 83%; susceptibility, % ([1]; CT 171): 92%; susceptibility, % ([1]; CT 200): 77%; susceptibility, % ([1]; CT 201): 79%; susceptibility, % ([1]; CT 210): 95%; susceptibility, % ([1]; CT 211): 91%; susceptibility, % ([1]; CT 230): 100%; susceptibility, % ([1]; CT 231): 100%; susceptibility, % ([1]; CT 240): 100%; susceptibility, % ([1]; CT 241): 100%; susceptibility, % ([1]; CT 250): 80%; susceptibility, % ([1]; CT 251): 80%; susceptibility, % ([1]; CT 271): 75%; susceptibility, % ([1]; CT 300): 0%; susceptibility, % ([1]; CT 301): 76%; susceptibility, % ([1]; CT 310): 100%; susceptibility, % ([1]; CT 311): 65%; susceptibility, % ([1]; CT 330): 55%; susceptibility, % ([1]; CT 331): 76%; susceptibility, % ([1]; CT 350): 74%; susceptibility, % ([1]; CT 351): 84%; susceptibility, % ([1]; CT 370): 75%; susceptibility, % ([1]; CT 371): 100%; susceptibility, % ([1]; CT 411): 100%; susceptibility, % ([1]; CT 450): 83%; susceptibility, % ([1]; CT 451): 100%; susceptibility, % ([1]; CT 510): 100%; susceptibility, % ([1]; CT 511): 0%; susceptibility, % ([1]; CT 530): 45%; susceptibility, % ([1]; CT 531): 67%; susceptibility, % ([1]; CT 550): 79%; susceptibility, % ([1]; CT 551): 52%; susceptibility, % ([1]; CT 570): 75%; susceptibility, % ([1]; CT 571): 100%; susceptibility, % ([1]; CT 611): 100%; susceptibility, % ([1]; CT 630): 100%; susceptibility, % ([1]; CT 650): 83%; susceptibility, % ([1]; CT 651): 85%; susceptibility, % ([1]; CT 670): 100%; susceptibility, % ([1]; CT 710): 67%; susceptibility, % ([1]; CT 730): 45%; susceptibility, % ([1]; CT 731): 82%; susceptibility, % ([1]; CT 750): 65%; susceptibility, % ([1]; CT 751): 100%; susceptibility, % ([1]; CT 771): 86%; susceptibility, % ([1]; CT Any Klebsiella spp.): 80%
